Drawing on PMC5485393, “Tailored chondroitin sulfate glycomimetics via a tunable multivalent scaffold for potentiating NGF/TrkA-induced neurogenesis” (Chemical Science, 2014), this text covers Kd and kon for two compounds.

The test addresses NGF (Homo sapiens, UniProt P01138). The test is described as follows: SPR (Biacore T100) kinetic analysis of NGF binding to immobilized glycopeptides. As to conditions: for kon: read-out: association rate constant ka of NGF binding (SPR), SEM.

Chain of NGF (P01138 122-241): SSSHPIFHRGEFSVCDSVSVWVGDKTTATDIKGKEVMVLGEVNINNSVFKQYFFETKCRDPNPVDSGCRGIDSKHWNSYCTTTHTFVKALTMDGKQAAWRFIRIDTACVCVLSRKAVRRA
Experimental: SPR technology was employed to facilitate quantitative, real-time kinetic analysis of glycopeptide–NGF binding. Biotinylated glycopeptides and CS-E polysaccharides were immobilized on streptavidin-coated surface at normalized levels by molecular weights, and the interactions with NGF were investigated as a function of NGF concentration.
Surface Plasmon Resonance (SPR): Affinity measurements were performed using a Biacore T100
system (GE Healthcare). The CM5 sensor chip was used for all measurements. The sensor was primed
with HBS-EP+ (10 mM HEPES pH 7.4, 150 mM NaCl, 3.4 mM EDTA, 0.005% P20, GE Healthcare)
buffer and was activated using amine coupling through 1:1 mixture of 0.4 M EDC and 0.1 M NHS.
Streptavidin solution (0.008mg/ml) in Acetate 5.0 buffer (GE Healthcare) was used and remaining
activated groups were blocked with 1 M solution of ethanolamine (pH 8.5). The final amount of
streptavidin covalently immobilized on the surface was typically 700 RU. Flow cell 1 (or 3) was used as a
reference to subtract nonspecific binding, drift, and the bulk refractive index, while flow cell 2 (or 4) was
further immobilized with either glycopeptides or CS-E polysaccharides. Either biotinylated glycopeptides
or CS-E polysaccharides (20 nM) were dissolved in HBS-EP+ buffer and were injected to flow cell 2 (or
4) at 30 µL/min until the baseline response increased by 104, 127, and 110 RU, for glycopeptide 5, 1, and
CS-E polysaccharides, respectively. For a given affinity measurement, these series of peptide solutions
were successively injected into the flow cells for 240 seconds of contact time and 800 seconds of
dissociation time using a flow rate of 50 μL/min at 25 °C. Flow cell was regenerated using 2.5 M MgCl2
at 30 μL/min. Association (ka) and dissociation (kd) rate constants were calculated with a 1:1 binding
model using Biacore evaluation software, and KD values were calculated from the ratio of kd to ka. Kinetic

For `COC(=O)[C@@H]1C[C@@H](n2cc(CO[C@@H]3O[C@H](COS(=O)(=O)O)[C@H](OS(=O)(=O)O)[C@H](O[C@@H]4O[C@H](C(=O)O)[C@@H](O)[C@H](O)[C@H]4O)[C@H]3NC(C)=O)nn2)CN1C(=O)[C@@H]1C[C@@H](n2cc(CO[C@@H]3O[C@H](COS(=O)(=O)O)[C@H](OS(=O)(=O)O)[C@H](O[C@@H]4O[C@H](C(=O)O)[C@@H](O)[C@H](O)[C@H]4O)[C@H]3NC(C)=O)nn2)CN1C(=O)[C@@H]1C[C@@H](n2cc(CO[C@@H]3O[C@H](COS(=O)(=O)O)[C@H](OS(=O)(=O)O)[C@H](O[C@@H]4O[C@H](C(=O)O)[C@@H](O)[C@H](O)[C@H]4O)[C@H]3NC(C)=O)nn2)CN1C(=O)[C@@H]1C[C@@H](n2cc(CO[C@@H]3O[C@H](COS(=O)(=O)O)[C@H](OS(=O)(=O)O)[C@H](O[C@@H]4O[C@H](C(=O)O)[C@@H](O)[C@H](O)[C@H]4O)[C@H]3NC(C)=O)nn2)CN1C(=O)[C@@H]1C[C@@H](n2cc(CO[C@@H]3O[C@H](COS(=O)(=O)O)[C@H](OS(=O)(=O)O)[C@H](O[C@@H]4O[C@H](C(=O)O)[C@@H](O)[C@H](O)[C@H]4O)[C@H]3NC(C)=O)nn2)CN1C(=O)[C@@H]1C[C@@H](n2cc(CO[C@@H]3O[C@H](COS(=O)(=O)O)[C@H](OS(=O)(=O)O)[C@H](O[C@@H]4O[C@H](C(=O)O)[C@@H](O)[C@H](O)[C@H]4O)[C@H]3NC(C)=O)nn2)CN1C(=O)[C@@H]1C[C@@H](n2cc(CO[C@@H]3O[C@H](COS(=O)(=O)O)[C@H](OS(=O)(=O)O)[C@H](O[C@@H]4O[C@H](C(=O)O)[C@@H](O)[C@H](O)[C@H]4O)[C@H]3NC(C)=O)nn2)CN1C(=O)[C@@H]1C[C@@H](n2cc(CO[C@@H]3O[C@H](COS(=O)(=O)O)[C@H](OS(=O)(=O)O)[C@H](O[C@@H]4O[C@H](C(=O)O)[C@@H](O)[C@H](O)[C@H]4O)[C@H]3NC(C)=O)nn2)CN1C(=O)[C@@H]1C[C@@H](n2cc(CO[C@@H]3O[C@H](COS(=O)(=O)O)[C@H](OS(=O)(=O)O)[C@H](O[C@@H]4O[C@H](C(=O)O)[C@@H](O)[C@H](O)[C@H]4O)[C@H]3NC(C)=O)nn2)CN1C(=O)[C@@H]1C[C@@H](n2cc(CO[C@@H]3O[C@H](COS(=O)(=O)O)[C@H](OS(=O)(=O)O)[C@H](O[C@@H]4O[C@H](C(=O)O)[C@@H](O)[C@H](O)[C@H]4O)[C@H]3NC(C)=O)nn2)CN1C(=O)[C@@H]1C[C@@H](n2cc(CO[C@@H]3O[C@H](COS(=O)(=O)O)[C@H](OS(=O)(=O)O)[C@H](O[C@@H]4O[C@H](C(=O)O)[C@@H](O)[C@H](O)[C@H]4O)[C@H]3NC(C)=O)nn2)CN1C(=O)[C@@H]1C[C@@H](n2cc(CO[C@@H]3O[C@H](COS(=O)(=O)O)[C@H](OS(=O)(=O)O)[C@H](O[C@@H]4O[C@H](C(=O)O)[C@@H](O)[C@H](O)[C@H]4O)[C@H]3NC(C)=O)nn2)CN1C(=O)CCOCCOCCOCCOCCOCCOCCOCCOCCOCCOCCOCCOCCNC(=O)CCCC[C@@H]1SC[C@@H]2NC(=O)N[C@@H]21` [compound 1], binding was put at a Kd of 3.57 µM and the kon came out at 346 M⁻¹ s⁻¹.
Take `COC(=O)[C@@H]1C[C@@H](n2cc(CO[C@@H]3O[C@H](COS(=O)(=O)O)[C@H](OS(=O)(=O)O)[C@H](O[C@@H]4O[C@H](C(=O)O)[C@@H](O)[C@H](O)[C@H]4O)[C@H]3NC(C)=O)nn2)CN1C(=O)[C@@H]1CCCN1C(=O)[C@@H]1CCCN1C(=O)[C@@H]1C[C@@H](n2cc(CO[C@@H]3O[C@H](COS(=O)(=O)O)[C@H](OS(=O)(=O)O)[C@H](O[C@@H]4O[C@H](C(=O)O)[C@@H](O)[C@H](O)[C@H]4O)[C@H]3NC(C)=O)nn2)CN1C(=O)[C@@H]1CCCN1C(=O)[C@@H]1CCCN1C(=O)[C@@H]1C[C@@H](n2cc(CO[C@@H]3O[C@H](COS(=O)(=O)O)[C@H](OS(=O)(=O)O)[C@H](O[C@@H]4O[C@H](C(=O)O)[C@@H](O)[C@H](O)[C@H]4O)[C@H]3NC(C)=O)nn2)CN1C(=O)[C@@H]1CCCN1C(=O)[C@@H]1CCCN1C(=O)[C@@H]1C[C@@H](n2cc(CO[C@@H]3O[C@H](COS(=O)(=O)O)[C@H](OS(=O)(=O)O)[C@H](O[C@@H]4O[C@H](C(=O)O)[C@@H](O)[C@H](O)[C@H]4O)[C@H]3NC(C)=O)nn2)CN1C(=O)[C@@H]1CCCN1C(=O)[C@@H]1CCCN1C(=O)[C@@H]1C[C@@H](n2cc(CO[C@@H]3O[C@H](COS(=O)(=O)O)[C@H](OS(=O)(=O)O)[C@H](O[C@@H]4O[C@H](C(=O)O)[C@@H](O)[C@H](O)[C@H]4O)[C@H]3NC(C)=O)nn2)CN1C(=O)[C@@H]1CCCN1C(=O)[C@@H]1CCCN1C(=O)[C@@H]1C[C@@H](n2cc(CO[C@@H]3O[C@H](COS(=O)(=O)O)[C@H](OS(=O)(=O)O)[C@H](O[C@@H]4O[C@H](C(=O)O)[C@@H](O)[C@H](O)[C@H]4O)[C@H]3NC(C)=O)nn2)CN1C(=O)[C@@H]1CCCN1C(=O)[C@@H]1CCCN1C(=O)[C@@H]1C[C@@H](n2cc(CO[C@@H]3O[C@H](COS(=O)(=O)O)[C@H](OS(=O)(=O)O)[C@H](O[C@@H]4O[C@H](C(=O)O)[C@@H](O)[C@H](O)[C@H]4O)[C@H]3NC(C)=O)nn2)CN1C(=O)[C@@H]1CCCN1C(=O)[C@@H]1CCCN1C(=O)[C@@H]1C[C@@H](n2cc(CO[C@@H]3O[C@H](COS(=O)(=O)O)[C@H](OS(=O)(=O)O)[C@H](O[C@@H]4O[C@H](C(=O)O)[C@@H](O)[C@H](O)[C@H]4O)[C@H]3NC(C)=O)nn2)CN1C(=O)[C@@H]1CCCN1C(=O)[C@@H]1CCCN1C(=O)[C@@H]1C[C@@H](n2cc(CO[C@@H]3O[C@H](COS(=O)(=O)O)[C@H](OS(=O)(=O)O)[C@H](O[C@@H]4O[C@H](C(=O)O)[C@@H](O)[C@H](O)[C@H]4O)[C@H]3NC(C)=O)nn2)CN1C(=O)[C@@H]1CCCN1C(=O)[C@@H]1CCCN1C(=O)[C@@H]1C[C@@H](n2cc(CO[C@@H]3O[C@H](COS(=O)(=O)O)[C@H](OS(=O)(=O)O)[C@H](O[C@@H]4O[C@H](C(=O)O)[C@@H](O)[C@H](O)[C@H]4O)[C@H]3NC(C)=O)nn2)CN1C(=O)[C@@H]1CCCN1C(=O)[C@@H]1CCCN1C(=O)[C@@H]1C[C@@H](n2cc(CO[C@@H]3O[C@H](COS(=O)(=O)O)[C@H](OS(=O)(=O)O)[C@H](O[C@@H]4O[C@H](C(=O)O)[C@@H](O)[C@H](O)[C@H]4O)[C@H]3NC(C)=O)nn2)CN1C(=O)[C@@H]1CCCN1C(=O)[C@@H]1CCCN1C(=O)[C@@H]1C[C@@H](n2cc(CO[C@@H]3O[C@H](COS(=O)(=O)O)[C@H](OS(=O)(=O)O)[C@H](O[C@@H]4O[C@H](C(=O)O)[C@@H](O)[C@H](O)[C@H]4O)[C@H]3NC(C)=O)nn2)CN1C(=O)[C@@H]1CCCN1C(=O)[C@@H]1CCCN1C(=O)CCOCCOCCOCCOCCOCCOCCOCCOCCOCCOCCOCCOCCNC(=O)CCCC[C@@H]1SC[C@@H]2NC(=O)N[C@@H]21` [compound 5]: the affinity, expressed as Kd, was 0.146 µM and the kon came out at 13400 M⁻¹ s⁻¹.

What is called Kd is a measure of binding affinity in units of concentration. High values mean lower affinity, low ones higher affinity.
